One data set addresses T1, serotonin transporter (Macaca mulatta, UniProt Q9MYX0).
T1 construct: The serotonin transporter was assayed in caudate-putamen membranes using conditions similar to those for the dopamine transporter; from tissue; host or cells: caudate-putamen membranes of cynomolgus or rhesus monkey brain
The experiment in a line: Serotonin transporter assay: inhibition of {3H}citalopram binding in caudate-putamen membranes. Further details: species or system rhesus or cynomolgus monkey. The following applies: IC50 (nM) SERT, monkey caudate-putamen, mean of 2 or more independent experiments in triplicate.

In the next data set the target is T2, dopamine transporter (Macaca fascicularis, UniProt Q9GJT6).
T2 construct: The caudate-putamen was dissected from coronal slices and yielded 1.4±0.4 g tissue; Membranes were prepared as described previously; from tissue; host or cells: caudate-putamen membranes of cynomolgus or rhesus monkey brain
T2 sequence (Q9GJT6 whole entry): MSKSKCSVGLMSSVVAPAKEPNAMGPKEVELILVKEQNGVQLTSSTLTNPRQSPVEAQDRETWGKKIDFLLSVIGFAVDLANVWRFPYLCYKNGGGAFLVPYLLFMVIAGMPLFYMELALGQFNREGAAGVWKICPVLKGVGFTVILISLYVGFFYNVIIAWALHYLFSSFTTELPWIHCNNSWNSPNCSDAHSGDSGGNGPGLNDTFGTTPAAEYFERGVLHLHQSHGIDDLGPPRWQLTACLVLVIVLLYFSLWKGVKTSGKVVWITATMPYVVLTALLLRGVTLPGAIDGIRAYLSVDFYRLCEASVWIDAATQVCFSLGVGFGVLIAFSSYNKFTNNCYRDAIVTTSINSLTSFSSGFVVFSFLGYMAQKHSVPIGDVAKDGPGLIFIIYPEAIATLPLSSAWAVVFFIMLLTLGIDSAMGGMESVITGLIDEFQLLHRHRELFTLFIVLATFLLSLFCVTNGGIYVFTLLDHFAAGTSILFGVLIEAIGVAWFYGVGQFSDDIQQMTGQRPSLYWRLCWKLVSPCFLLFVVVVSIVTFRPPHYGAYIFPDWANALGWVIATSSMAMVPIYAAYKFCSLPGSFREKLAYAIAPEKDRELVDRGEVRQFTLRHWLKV
The data set can be described thus: Dopamine transporter assay: inhibition of {3H}WIN 35,428 binding in caudate-putamen membranes. Further details: species or system rhesus or cynomolgus monkey. The settings on record: for IC50: IC50 (nM) DAT, inhibition of {3H}WIN 35,428 binding, monkey caudate-putamen, mean of 2 or more independent experiments in triplicate; for SERT/DAT: selectivity ratio IC50 SERT / IC50 DAT.

Here are results for 18 compounds from patent publication US7199132B2, “Tropane analogs and methods for inhibition of monoamine transport” (Organix, Inc., priority 2001, dated 2007).

T1 sequence (Q9MYX0 whole entry): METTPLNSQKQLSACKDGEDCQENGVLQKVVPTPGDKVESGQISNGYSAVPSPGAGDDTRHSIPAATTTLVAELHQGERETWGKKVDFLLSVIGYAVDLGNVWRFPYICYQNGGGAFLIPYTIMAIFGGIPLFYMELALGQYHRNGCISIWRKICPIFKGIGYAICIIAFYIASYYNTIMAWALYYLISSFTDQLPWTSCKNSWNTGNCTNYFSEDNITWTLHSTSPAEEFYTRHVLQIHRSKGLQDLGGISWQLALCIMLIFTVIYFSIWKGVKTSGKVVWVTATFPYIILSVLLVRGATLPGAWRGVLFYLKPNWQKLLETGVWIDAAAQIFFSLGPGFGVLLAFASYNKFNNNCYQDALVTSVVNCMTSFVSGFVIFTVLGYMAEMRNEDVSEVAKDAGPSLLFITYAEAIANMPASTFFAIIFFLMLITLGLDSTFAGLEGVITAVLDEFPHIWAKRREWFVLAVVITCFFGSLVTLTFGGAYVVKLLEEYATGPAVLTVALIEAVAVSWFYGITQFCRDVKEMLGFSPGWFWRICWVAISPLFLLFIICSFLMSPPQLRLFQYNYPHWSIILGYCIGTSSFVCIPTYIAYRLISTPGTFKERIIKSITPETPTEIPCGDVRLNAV

With `COC(=O)C1=C(c2ccccc2)C[C@@H]2C[C@@H](O)[C@H]1N2C` (racemic) [Compound 8d, 2-Carbomethoxy-3-phenyl-7β-hydroxy-8-methyl-8-azabicyclo{3.2.1}oct-2-ene], the melting point – broadly, the temperature, or range, at which the solid turns liquid – was in the range of 113 to 114 °C. Besides, the IC50 (commonly the concentration at which inhibition is half-maximal) on serotonin transporter was above 10000 nM. Also, at dopamine transporter, the half-maximal inhibitory concentration (IC50) is above 10000 nM and the SERT/DAT was determined as 1.

For `COC(=O)C1C(c2ccc(Cl)c(Cl)c2)CC2CC(O)C1N2C` (racemic) [Compound 15a, 2β-Carbomethoxy-3β-(3,4-dichlorophenyl)-7β-hydroxy-8-methyl-8-azabicyclo{3.2.1}octane], the melting point lay in the range of 185.5 to 186.5 °C. This compound had an IC50 on serotonin transporter of 27.7 nM. For the same compound, the SERT/DAT at dopamine transporter is reported as 20.

On to `COC(=O)[C@@H]1[C@H]2[C@H](O)C[C@@H](C[C@@H]1c1ccc(F)cc1)N2C` (racemic) [Compound 15c, 2β-Carbomethoxy-3β-(4-fluorophenyl)-7β-hydroxy-8-methyl-8-azabicyclo{3.2.1}octane], for which the melting point lay in the range of 179.3 to 181.3 °C. This compound also gave an IC50 on serotonin transporter above 10000 nM. Also, at dopamine transporter, the SERT/DAT is given as above 80.

With `COC(=O)[C@H]1[C@@H](c2ccc(Cl)c(Cl)c2)C[C@@H]2[C@@H](O)C[C@H]1N2C` (relative stereo) [Compound 14a, 2β-Carbomethoxy-3β-(3,4-dichlorophenyl)-6β-hydroxy-8-methyl-8-azabicyclo{3.2.1}octane], the melting point was 93.5 to 95.5 °C. For the same compound, the IC50 at serotonin transporter came out at 166 nM. Besides, the SERT/DAT on dopamine transporter was determined as 55.

With `COC(=O)[C@H]1[C@@H](c2ccc3ccccc3c2)C[C@@H]2[C@@H](O)C[C@H]1N2C` (relative stereo) [Compound 14b, 2β-Carbomethoxy-3β-(2-naphthyl)-6β-hydroxy-8-methyl-8-azabicyclo{3.2.1}octane], the melting point was in the range of 84 to 86 °C. At serotonin transporter, the IC50 is 34.2 nM. Also, the SERT/DAT on dopamine transporter turned out to be 4.

For `COC(=O)[C@H]1[C@@H](c2ccccc2)C[C@@H]2[C@@H](O)C[C@H]1N2C` (relative stereo) [Compound 14d, 2β-Carbomethoxy-3β-phenyl-6β-hydroxy-8-methyl-8-azabicyclo{3.2.1}octane], the melting point fell in the range of 150 to 152 °C. On serotonin transporter, this compound displayed a 50% inhibitory concentration (IC50) of 88000 nM. At dopamine transporter, the SERT/DAT amounted to 14.

The compound `COC(=O)[C@@H]1[C@H]2[C@H](O)C[C@@H](C[C@@H]1c1ccc3ccccc3c1)N2C` (relative stereo) [Compound 15b, 2β-Carbomethoxy-3β-(2-naphthyl)-7β-hydroxy-8-methyl-8-azabicyclo{3.2.1}octane] gave a melting point of 207.5 to 208.5 °C. Moreover, the IC50 at serotonin transporter is 5.57 nM. The SERT/DAT on dopamine transporter was 4.

In turn, `COC(=O)[C@@H]1[C@H]2C[C@H](O)[C@@H](C[C@H]1c1ccc3ccccc3c1)N2C` (relative stereo) [Compound 17b, 2β-Carbomethoxy-3α-(2-naphthyl)-6β-hydroxy-8-methyl-8-azabicyclo{3.2.1}octane] registered a melting point of 93.5 to 94.5 °C. Also, the IC50 at serotonin transporter is 180 nM. Also, the SERT/DAT at dopamine transporter is 6.

The compound `COC(=O)[C@@H]1[C@H]2[C@H](O)C[C@@H](C[C@H]1c1ccc3ccccc3c1)N2C` (relative stereo) [Compound 18b, 2β-Carbomethoxy-3α-(2-naphthyl)-7β-hydroxy-8-methyl-8-azabicyclo{3.2.1}octane] displayed a melting point of 140.1 to 141.9 °C. The half-inhibitory concentration (IC50) at serotonin transporter was found to be 94 nM. Also, the SERT/DAT at dopamine transporter is 34.

On to `COC(=O)[C@@H]1[C@H]2[C@H](O)C[C@@H](C[C@H]1c1ccc(F)cc1)N2C` (relative stereo) [Compound 18c, 2β-Carbomethoxy-3α-(4-fluorophenyl)-7β-hydroxy-8-methyl-8-azabicyclo{3.2.1}octane], for which the melting point fell in the range of 177.2 to 179 °C. At serotonin transporter, this compound registered an IC50 above 20000 nM. Besides, on dopamine transporter, the SERT/DAT is recorded as above 120.

In turn, `COC(=O)[C@@H]1[C@H]2C(=O)C[C@@H](C[C@H]1c1ccc(Cl)c(Cl)c1)N2C` (relative stereo) [Compound 20, 2β-Carbomethoxy-3α-(3,4-dichlorophenyl)-8-methyl-8-azabicyclo{3.2.1}oct-7-one] came in with a melting point of 163.5 to 164.5 °C. Also, the IC50 at serotonin transporter amounted to 7040 nM. For the same compound, on dopamine transporter, the IC50 came out at 14.2 nM.

Compound `CCC(=O)[C@@H]1[C@H]2[C@H](O)C[C@@H](C[C@@H]1c1ccc(Cl)c(Cl)c1)N2C` (relative stereo) [Compound 23, 1-{3β-(3,4-Dichlorophenyl)-7β-hydroxy-8-methyl-8-azabicyclo{3.2.1}oct-2-yl}propan-1-one] yielded a melting point of 195.5 to 196.5 °C. On serotonin transporter, this compound came in with an IC50 of 97 nM. Besides, at dopamine transporter, the IC50 came out at 0.81 nM.

`CCC(=O)[C@@H]1[C@H]2[C@H](O)C[C@@H](C[C@H]1c1ccc(Cl)c(Cl)c1)N2C` (relative stereo) [Compound 26, 1-{3α-(3,4-Dichlorophenyl)-7β-hydroxy-8-methyl-8-azabicyclo{3.2.1}oct-2-yl}propan-1-one] showed a melting point of 113.1 to 114.1 °C. This compound also had an IC50 at serotonin transporter of 2520 nM. The compound further yielded an IC50 on dopamine transporter of 1.1 nM.

Compound `COC(=O)C1=C(c2ccc3ccccc3c2)CC2C(O)CC1N2C` (stereo not drawn) [Compound 7b, 2-Carbomethoxy-3-(2-naphthyl)-6β-hydroxy-8-methyl-8-azabicyclo{3.2.1}oct-2-ene] showed a melting point of 165 to 167 °C. On serotonin transporter, this compound had an IC50 of 260 nM. The SERT/DAT at dopamine transporter is recorded as 1.

In turn, `COC(=O)C1=C(c2ccc(F)cc2)CC2C(O)CC1N2C` (stereo not drawn) [Compound 7c, 2-Carbomethoxy-3-(4-fluorophenyl)-6β-hydroxy-8-methyl-8-azabicyclo{3.2.1}oct-2-ene] returned a melting point of 124 to 126 °C. Moreover, the IC50 on serotonin transporter is above 20000 nM. For the same compound, on dopamine transporter, the IC50 is above 20000 nM and the SERT/DAT worked out at 1.

With `COC(=O)C1=C(c2ccccc2)CC2C(O)CC1N2C` (stereo not drawn) [Compound 7d, 2-Carbomethoxy-3-phenyl-6β-hydroxy-8-methyl-8-azabicyclo{3.2.1}oct-2-ene], the melting point was 165 to 167 °C. The IC50 at serotonin transporter was above 100000 nM. Further, on dopamine transporter, the IC50 is above 150000 nM and the SERT/DAT is 1.

The compound `COC(=O)C1=C(c2ccc3ccccc3c2)CC2CC(O)C1N2C` (stereo not drawn) [Compound 8b, 2-Carbomethoxy-3-(2-naphthyl)-7β-hydroxy-8-methyl-8-azabicyclo{3.2.1}oct-2-ene] displayed a melting point of 164.2 to 165.2 °C. This compound also returned an IC50 on serotonin transporter of 677 nM. Also, the SERT/DAT at dopamine transporter is on record as 15.

With `COC(=O)C1C(c2ccc(F)cc2)CC2C(O)CC1N2C` (stereo not drawn) [Compound 14c, 2β-Carbomethoxy-3β-(4-fluorophenyl)-6β-hydroxy-8-methyl-8-azabicyclo{3.2.1}octane], the melting point lay within 162 to 164 °C. The compound further registered a half-inhibitory concentration (IC50) at serotonin transporter above 20000 nM. Moreover, on dopamine transporter, the SERT/DAT is reported as above 42.
